Consider 120 compounds from a melting point compilation (Tetko et al.).

One may read the melting point as the temperature, or range, at which the solid turns liquid. `Nc1nc(-c2ccc(OC(F)F)cc2OC(F)F)cs1` displayed a melting point of 86 to 88 °C.
Then `CCOc1cc(C(=O)O)ccc1OCC(=O)N1CCCCC1`, with 129 to 131 °C; and `CC(C)(C)c1ccc(Oc2ccc(C(=O)O)cc2F)cc1`, with 171 to 173 °C.
The result for `CN(c1ccc(O)cc1)S(=O)(=O)c1ccccc1F` reads 100 to 102 °C.
The result for `COc1ccc(S(=O)(=O)NCC(=O)O)cc1OC` reads 173 to 175 °C.
Turning to `O=C(O)C1CCN(c2ncc(C(F)(F)F)cc2Cl)CC1`, the melting point was in the range of 134 to 136 °C.
As to `Cc1cc(C)n2nc(CCCO)nc2n1`, the melting point lay in the range of 89 to 91 °C.
Then `CC(=O)Nc1ccc(NS(C)(=O)=O)c(C(=O)O)c1`, with 265 to 267 °C; and `COc1ccc(C)cc1N1CC(C(=O)O)CC1=O` (stereo not given), with 171 to 173 °C.
Then `N#CCc1cccnc1Cl`, with 80 to 82 °C; and `O=C(O)C=Cc1ccc(Cl)nc1`, with 209 to 211 °C.
The result for `Nc1nc(Cl)c(Cl)cc1[N+](=O)[O-]` reads 126 to 128 °C.
Take `Cc1nc(-c2cccnc2)nc(Cl)c1C`: the melting point lay within 72 to 74 °C.
The result for `Cc1ccc(S(=O)(=O)NC(CCC(N)=O)C(=O)O)cc1C` (stereo not given) reads 171 to 173 °C.
The result for `Nc1ccc(NS(=O)(=O)c2ccc3c(c2)OCCO3)cc1` reads 176 to 178 °C; that for `CC(=O)OCC(=O)[C@@]1(O)CC[C@H]2[C@@H]3CCC4=CC(=O)CC[C@]4(C)[C@H]3[C@@H](O)C[C@@]21C`, 219 to 221 °C.
Then `CC(C)Oc1ccc(-c2nc(C(=O)O)cs2)cc1`, with 203 to 205 °C; and `COC(=O)c1[nH]c(=O)[nH]c1C`, with 229 to 231 °C; and `CC(=O)c1cccc(OCCCC(=O)O)c1`, with 90 to 92 °C.
In turn, `O=C(O)Cc1ccn(-c2ccccc2)n1` showed a melting point of 99 to 101 °C.
The result for `Cn1cc(COc2ccc(O)cc2)cn1` reads 186 to 188 °C; that for `CCNc1ccc(S(=O)(=O)N2CCOCC2)cc1N`, 188 to 190 °C; that for `CC(=O)c1sc(-c2ccccc2Br)nc1C`, 124 to 126 °C.
The result for `CC(C)Oc1cccnc1C(=O)O` reads 199 to 201 °C; that for `Clc1nc(-c2ccccc2)c2ccccc2n1`, 111 to 113 °C.
The result for `COc1cc(NC(=O)CCCl)cc(OC)c1OC` reads 117 to 119 °C.
With `N#CCc1ccc(C(=O)O)cc1`, the melting point was 189 to 191 °C.
Then `CCOC(=O)c1cc2c(nc1N)CCN(C)C2`, with 146 to 148 °C; and `CC(C)(C)c1ccc(-c2ccc(C=O)o2)cc1`, with 70 to 72 °C; and `Nc1nc2ccc(SC(F)F)cc2s1`, with 105 to 107 °C.
Then `O=[N+]([O-])C=Cc1ccc(SC(F)(F)F)cc1`, with 136 to 138 °C.
`O=C(O)C1CSCN1C(=O)C1CCC1` (stereo not given) showed a melting point of 115 to 117 °C.
Then `O=C(O)/C=C/S(=O)(=O)c1ccccc1`, with 190 to 192 °C; and `Nc1noc(-c2ccoc2)n1`, with 179 to 181 °C; and `Cc1cccc(C#N)n1`, with 70 to 72 °C.
Compound `NS(=O)(=O)c1ccc(F)cc1[N+](=O)[O-]` returned a melting point of 153 to 155 °C.
`C=CCn1c(S)n[nH]c1=O` had a melting point of 135 to 137 °C.
As for `Cc1ccc(-c2noc(CC#N)n2)cc1`, the melting point fell in the range of 56 to 58 °C.
`O=C(O)c1cnc2sc(Cc3ccccc3)cn2c1=O` displayed a melting point of 197 to 199 °C.
Then `O=S1(=O)CC(O)C(S(=O)(=O)Cl)C1` (stereo not given), with 111 to 113 °C; and `Cc1c(C(=O)C(=O)O)sc2ccccc12`, with 156 to 158 °C.
Then `CN1Cc2ccccc2NC1=O`, with 200 to 203 °C; and `CCc1cccc(CC(=O)O)c1`, with 58 to 60 °C.
The result for `Cc1sc(N)nc1-c1cccc(Cl)c1` reads 90 to 94 °C.
In turn, `N#Cc1cnn2cc(C=O)cnc12` gave a melting point of 222 to 224 °C.
The result for `O=c1c2ccccc2nnn1CO` reads 133 to 135 °C; that for `Nc1ccc(OCc2cccs2)cc1`, 61 to 63 °C; that for `Cc1nn(C)c2c1NC(=O)CS2`, 197 to 199 °C.
Take `Cc1ccc(-n2cc(C)cn2)c(N)c1`: the melting point was 49 to 51 °C.
Then `CC(=O)CC(=O)CCN1C(=O)c2ccccc2C1=O`, with 104 to 106 °C.
Then `CC(NC(=O)c1ccccc1NC(=O)CCl)c1ccccc1` (stereo not given), with 118 to 120 °C.
Then `NCC1(Nc2ccccc2)CCCCC1`, with 61 to 63 °C.
Consider `Clc1nccn2cnnc12`, for which the melting point is 195 to 197 °C.
The result for `Cn1c(=O)cc(C(=O)O)c2ccccc21` reads 250 to 252 °C; that for `CN(c1ccccc1)S(=O)(=O)c1cccc(C(=O)O)c1`, 148 to 152 °C.
Then `Cc1ccc(C)c(-n2nnnc2SCC(=O)O)c1`, with 157 to 159 °C; and `O=C(O)c1ccc(S(=O)(=O)Cl)cc1Br`, with 204 to 206 °C; and `O=C1NC(=O)C(c2cccs2)(C2CC2)N1` (stereo not given), with 199 to 201 °C.
On to `OC1COc2ccc(Br)cc21` (stereo not given), for which the melting point was in the range of 79 to 81 °C.
The result for `O=C(O)c1ccc2nccnc2c1` reads 233 to 235 °C; that for `Sc1nnc2c(Cl)cc(Cl)cn12`, 257 to 259 °C; that for `O=C1CCCc2nc(-c3ccccc3Br)sc21`, 130 to 132 °C.
The result for `CNS(=O)(=O)Cc1ccc(C#N)cc1` reads 154 to 158 °C; that for `NC(=O)CCc1ccc([N+](=O)[O-])cc1[N+](=O)[O-]`, 115 to 117 °C.
The result for `COC(=O)c1c(C2CC2)csc1N` reads 72 to 74 °C; that for `CC(C)(C)OC(=O)N1CCC2(C1)NC(=O)NC2=O` (stereo not given), 214 to 216 °C.
In the case of `CN1C(=O)CCC(C(=O)O)C1c1cccc(Cl)c1` (stereo not given), the melting point lay in the range of 182 to 184 °C.
The result for `COC(=O)c1ccc(S(=O)(=O)Cl)cn1` reads 119 to 121 °C; that for `NC(=O)c1cc(S(=O)(=O)NCC(=O)O)c[nH]1`, 279 to 281 °C; that for `CCCc1c(C(=O)O)cnn1-c1cccc(F)c1`, 97 to 99 °C.
With `COc1ccc(NC(=O)c2ccc(N)cc2)cc1`, the melting point fell in the range of 187 to 189 °C.
Then `COC(=O)c1cc(Cl)c(N)cc1OC`, with 124 to 126 °C; and `CCc1nc(C)ncc1C(=O)O`, with 158 to 160 °C; and `CS(=O)(=O)CC(O)c1ccccc1` (stereo not given), with 103 to 105 °C.
Take `Cn1c(S)nc2sc3c(c2c1=O)CCCC3`: the melting point is 304 to 306 °C.
The result for `NC(=O)Nc1ccc(C(=O)O)cc1` reads 296 to 298 °C.
The result for `CC(C)(C)c1ccc2oc(N)nc2c1` reads 146 to 148 °C; that for `CC1CCC(CC(=O)O)CC1` (stereo not given), 58 to 60 °C; that for `Cc1n[nH]c2cc(N)ccc12`, 189 to 191 °C.
For the compound `NNS(=O)(=O)CCc1ccccc1`, the melting point is 62 to 64 °C.
Then `CC(C)(C)OC(=O)NC1(C#N)CCCC1`, with 106 to 108 °C; and `OC(c1ccccc1)c1nc2cc(Cl)ccc2[nH]1` (stereo not given), with 184 to 186 °C.
The result for `NS(=O)(=O)c1ccc(N2CCC(C(=O)O)CC2)c([N+](=O)[O-])c1` reads 181 to 183 °C; that for `Nc1ccnc2ccncc12`, 254 to 256 °C.
Then `O=C(O)c1c[nH]c(=O)[nH]1`, with 232 to 236 °C; and `CCc1ccc2c(CC(=O)O)coc2c1`, with 82 to 84 °C.
In the case of `O=[N+]([O-])c1cc(S(=O)(=O)Cl)c(Br)cc1F`, the melting point fell in the range of 80 to 82 °C.
Compound `CCOC(=O)c1nnc(C)n1C1CC1` showed a melting point of 109 to 111 °C.
The result for `CC(C)(C)OC(=O)N1CCC(CC(=O)O)CC1` reads 98 to 100 °C; that for `COC(=O)c1ccc(F)c(C)c1N`, 35 to 37 °C; that for `COc1cc2c(cc1OC)C(c1ccccc1)NCC2` (stereo not given), 111 to 113 °C.
The result for `CC(NC(=O)OC(C)(C)C)C(N)=NO` (stereo not given) reads 139 to 141 °C; that for `Cc1ccc2ncc(C=O)n2c1`, 105 to 107 °C.
`COc1ccc(-c2nnc(S)n2N)cc1OC` came in with a melting point of 204 to 208 °C.
The result for `CC(C)(C)OC(=O)N1CCc2ccc(N)cc2C1` reads 93 to 95 °C; that for `O=Cc1cn(Cc2ccccc2)nc1-c1ccccc1`, 85 to 87 °C.
Then `O=c1[nH]nnc2sc3c(c12)CCCC3`, with 185 to 187 °C; and `O=S(=O)(Cl)Cc1ccc(F)cc1Br`, with 45 to 47 °C.
`CC(=O)CC(=O)Nc1ccc(C)c(Cl)c1` yielded a melting point of 108 to 110 °C.
Then `O=C(Cl)c1cc([N+](=O)[O-])ccc1Br`, with 62 to 64 °C.
Then `CC(C)(C)[Si](C)(C)Oc1cc(C(=O)O)cc2ccccc12`, with 153 to 155 °C.
The result for `O=C1CC(=O)CC2(CCCCC2)C1` reads 169 to 171 °C; that for `O=c1[nH]c2ccccc2c(=O)n1CCO`, 257 to 259 °C.
Take `Cc1cccc(-c2nnc(CO)o2)c1`: the melting point was 82 to 84 °C.
Then `Sc1nnnc2ccccc12`, with 183 to 185 °C.
Then `CC(C#N)NC(=O)OC(C)(C)C` (stereo not given), with 94 to 96 °C; and `CC1(C)CC(=O)c2ccc(O)cc2O1`, with 168 to 170 °C; and `Nc1ccc(CC(F)(F)F)cc1`, with 46 to 48 °C.
With `Nc1nc(-c2cccnc2)no1`, the melting point was in the range of 266 to 268 °C.
The result for `CC(C)c1ccc(C2CC2C(=O)O)cc1` (stereo not given) reads 67 to 69 °C; that for `CC(C)(C)OC(=O)NCc1nnc(-c2cccnc2)[nH]1`, 196 to 198 °C.
The result for `CC(c1cc(Cl)ccc1Cl)n1nccc1N` (stereo not given) reads 94 to 96 °C; that for `O=S(=O)(NC1CCCC1)c1ccc(Cl)nc1`, 97 to 99 °C.
The result for `COC(=O)c1cc2c(F)cc(Br)cc2[nH]1` reads 190 to 192 °C.
Regarding `CC(=O)N1CCN(c2ccc(CO)cc2)CC1`, the melting point lay within 146 to 148 °C.
Then `NCC(O)c1ccc(F)cc1` (stereo not given), with 65 to 67 °C; and `FC(F)c1nnc2ccc(Cl)nn12`, with 101 to 103 °C; and `CC1CN(S(=O)(=O)Cl)CC(C)O1` (stereo not given), with 74 to 76 °C.
The result for `O=C(O)c1ccc(S(=O)(=O)NC2CC2)cc1` reads 243 to 245 °C.
Then `COc1ccc(C(=O)NN)cc1Br`, with 137 to 139 °C.
